Measurements reported in patent publication US4716222A, “Substrates for hydrolases” (Hoechst Aktiengesellschaft, priority 1984, dated 1987).

Legend:
pKa of the dyes A-OH = type: physicochemical
Source text: The compounds of the formula A--O--B can be used as substrates for the detection and the determination of hydrolases. The dye A--OH, which is liberated on cleavage, has appreciable advantages over those of the state of the art. […] This means that even in the pH range below 7 there is compared with p-nitrophenol, a considerably higher extinction at the same molarity, so that the new substrates prepared from these dyes can therefore be measured with considerably greater sensitivity.

[1] = Extinction coefficients and absorption maxima of dyes at different pH values; type: physicochemical
α-amylase = assay: Determination of α-amylase activity in a urine sample without auxiliary enzyme α-glucosidase; type: biochemical; settings: for absorbance change, fold greater than with the nitrophenyl derivative / delta A/min: urine sample; for delta A/min: without auxiliary enzyme α-glucosidase
Method: For determination of α-amylase, the measured extinction changes were compared for the following new substrates: 2H-7-O-(α-D-maltotriosyl)-4-methyl-8-nitrobenzopyran-2-one (compound S10), the corresponding maltotetraosyl compound (compound S11) as well as o-nitrophenyl α-maltotrioside.
585 mg of NaCl and 200 mg of compound S10 were dissolved in 100 ml of M/15 phosphate buffer, pH 6.0. 20 μl of urine were pipetted into 1 ml of this solution which was thoroughly mixed. The change in absorbance at 365 nm was continuously recorded in a photometer with a pen recorder attached. The change in absorbance per miute (delta A/min) was calculated from the recording on the pen recorder, and the enzyme activity (U/L) was calculated using the following formula: [formula] 1.02=assay volume including the sample, in ml 0.02=sample volume in ml

Which pKa (pKa of the dyes A-OH) does the source give for O=[N+]([O-])c1nc(Cl)ccc1O [3-Hydroxy-2-nitro-6-chloropyridine] here?
The pKa was 3.9.

What about the Extinction coefficient ([1]; pH 4.0, 365 nm) of the same compound?
The Extinction coefficient was 7.84 1·mol^-1·cm^-1·10^3.

What about the Extinction coefficient ([1]; pH 5.0, 365 nm) of the same compound?
The Extinction coefficient was 11.87 1·mol^-1·cm^-1·10^3.

And the Extinction coefficient ([1]; pH 6.0, 365 nm)?
Its Extinction coefficient is 12.9 1·mol^-1·cm^-1·10^3.

What about the Extinction coefficient ([1]; pH 7.1, 365 nm) of the same compound?
Its Extinction coefficient is 13.2 1·mol^-1·cm^-1·10^3.

And the Extinction coefficient ([1]; pH 10, 365 nm)?
The Extinction coefficient was 13.2 1·mol^-1·cm^-1·10^3.

For O=[N+]([O-])c1ncccc1O [3-Hydroxy-2-nitropyridine], which pKa (pKa of the dyes A-OH) is on record?
Its pKa is 5.1.

What about the Extinction coefficient ([1]; pH 4.0, 405 nm) of the same compound?
The Extinction coefficient was 0.50 1·mol^-1·cm^-1·10^3.

What about the Extinction coefficient ([1]; pH 5.0, 405 nm) of the same compound?
The Extinction coefficient was 2.32 1·mol^-1·cm^-1·10^3.

What about the Extinction coefficient ([1]; pH 6.0, 405 nm) of the same compound?
The Extinction coefficient was 5.09 1·mol^-1·cm^-1·10^3.

What about the Extinction coefficient ([1]; pH 7.1, 405 nm) of the same compound?
The Extinction coefficient was 5.80 1·mol^-1·cm^-1·10^3.

And the Extinction coefficient ([1]; pH 10, 405 nm)?
The Extinction coefficient was 5.90 1·mol^-1·cm^-1·10^3.

Which pKa (pKa of the dyes A-OH) does the source give for O=[N+]([O-])c1ccnc(Cl)c1O [3-Hydroxy-4-nitro-2-chloropyridine] here?
The pKa was 3.1.

And the Extinction coefficient ([1]; pH 4.0, 405 nm)?
Its Extinction coefficient is 4.93 1·mol^-1·cm^-1·10^3.

What about the Extinction coefficient ([1]; pH 5.0, 405 nm) of the same compound?
Its Extinction coefficient is 5.34 1·mol^-1·cm^-1·10^3.

What about the Extinction coefficient ([1]; pH 6.0, 405 nm) of the same compound?
Its Extinction coefficient is 5.40 1·mol^-1·cm^-1·10^3.

And the Extinction coefficient ([1]; pH 7.1, 405 nm)?
Its Extinction coefficient is 5.48 1·mol^-1·cm^-1·10^3.

What about the Extinction coefficient ([1]; pH 10, 405 nm) of the same compound?
Its Extinction coefficient is 5.4 1·mol^-1·cm^-1·10^3.

With Cc1cc(=O)oc2c([N+](=O)[O-])c(O)ccc12 [4-Methyl-8-nitrobenzopyran-2-one, 2H-7-hydroxy-4-methyl-8-nitrobenzopyran-2-one] as the compound, how does the pKa (pKa of the dyes A-OH) read?
The pKa was 4.45.

What does the source list for O=c1oc2cc(O)ccc2cc1[N+](=O)[O-] [7-hydroxy-3-nitrocoumarin]?
absorption maximum ([1]; pH<6): 390 nm; absorption maximum ([1]; pH>8): 450 nm

For O=c1ccc2nc3ccc(O)cc3oc-2c1 [Resorufin, 3H-7-hydroxyphenoxazin-3-one], which Extinction coefficient ([1]; pH 4.0, 574 nm, mercury lamp photometer, calculated) is on record?
The Extinction coefficient was 1.00 1·mol^-1·cm^-1·10^3.

What about the Extinction coefficient ([1]; pH 4.0, 578 nm, variable wavelength photometer) of the same compound?
The Extinction coefficient was 0.75 1·mol^-1·cm^-1·10^3.

What about the Extinction coefficient ([1]; pH 5.0, 574 nm, mercury lamp photometer, calculated) of the same compound?
Its Extinction coefficient is 7.4 1·mol^-1·cm^-1·10^3.

What about the Extinction coefficient ([1]; pH 5.0, 578 nm, variable wavelength photometer) of the same compound?
The Extinction coefficient was 5.7 1·mol^-1·cm^-1·10^3.

And the Extinction coefficient ([1]; pH 6.0, 574 nm, mercury lamp photometer, calculated)?
Its Extinction coefficient is 29.64 1·mol^-1·cm^-1·10^3.

What about the Extinction coefficient ([1]; pH 6.0, 578 nm, variable wavelength photometer) of the same compound?
Its Extinction coefficient is 22.80 1·mol^-1·cm^-1·10^3.

What about the Extinction coefficient ([1]; pH 7.1, 574 nm, mercury lamp photometer) of the same compound?
Its Extinction coefficient is 49.87 1·mol^-1·cm^-1·10^3.

What about the Extinction coefficient ([1]; pH 7.1, 578 nm, variable wavelength photometer) of the same compound?
Its Extinction coefficient is 39.6 1·mol^-1·cm^-1·10^3.

And the Extinction coefficient ([1]; pH 10, 574 nm, mercury lamp photometer)?
Its Extinction coefficient is 55.42 1·mol^-1·cm^-1·10^3.

And the Extinction coefficient ([1]; pH 10, 578 nm, variable wavelength photometer)?
Its Extinction coefficient is 41.000 1·mol^-1·cm^-1·10^3.

For Cc1cc(=O)oc2c([N+](=O)[O-])c(O[C@H]3O[C@H](CO)[C@@H](O[C@H]4O[C@H](CO)[C@@H](O[C@H]5O[C@H](CO)[C@@H](O)[C@H](O)[C@H]5O)[C@H](O)[C@H]4O)[C@H](O)[C@H]3O)ccc12 [compound S10, 2H-7-O-(α-D-Maltotriosyl)-4-methyl-8-nitrobenzopyran-2-one], which “absorbance change, fold greater than with the nitrophenyl derivative” value (α-amylase) is on record?
The value was 32 fold.

And the “delta A/min” value (α-amylase)?
The value was 0,635 A/min.

With Cc1cc(=O)oc2c([N+](=O)[O-])c(O[C@H]3O[C@H](CO)[C@@H](O[C@H]4O[C@H](CO)[C@@H](O[C@H]5O[C@H](CO)[C@@H](O[C@H]6O[C@H](CO)[C@@H](O)[C@H](O)[C@H]6O)[C@H](O)[C@H]5O)[C@H](O)[C@H]4O)[C@H](O)[C@H]3O)ccc12 [compound S11, 2H-7-O-(α-D-Maltotetraosyl)-4-methyl-8-nitrobenzopyran-2-one] as the compound, how does the “absorbance change, fold greater than with the nitrophenyl derivative” value (α-amylase) read?
Its value is “approximately 14 fold”.

And the “delta A/min” value (α-amylase)?
The value was 0,134 A/min.

For O=[N+]([O-])c1ncccc1O[C@H]1O[C@H](CO)[C@@H](O[C@H]2O[C@H](CO)[C@@H](O[C@H]3O[C@H](CO)[C@@H](O)[C@H](O)[C@H]3O)[C@H](O)[C@H]2O)[C@H](O)[C@H]1O [compound S12, 3-O-(α-D-Maltotriosyl)-2-nitropyridine], which “absorbance changes in comparison with the state of the art” value (α-amylase; without auxiliary enzyme, immediately linear kinetics) is on record?
Its value is “sufficiently high absorbance changes”.

Which “delta A/min” value (α-amylase) does the source give for O=[N+]([O-])c1ccccc1O[C@H]1O[C@H](CO)[C@@H](O[C@H]2O[C@H](CO)[C@@H](O[C@H]3O[C@H](CO)[C@@H](O)[C@H](O)[C@H]3O)[C@H](O)[C@H]2O)[C@H](O)[C@H]1O [nitrophenyl derivative, o-nitrophenyl α-maltotrioside] here?
The value was 0,020 A/min.

With O=[N+]([O-])c1ccc(O)cc1 [p-Nitrophenol] as the compound, how does the Extinction coefficient ([1]; pH 4.0, 405 nm) read?
Its Extinction coefficient is 0.20 1·mol^-1·cm^-1·10^3.

And the Extinction coefficient ([1]; pH 5.0, 405 nm)?
Its Extinction coefficient is 0.40 1·mol^-1·cm^-1·10^3.

And the Extinction coefficient ([1]; pH 6.0, 405 nm)?
Its Extinction coefficient is 1.50 1·mol^-1·cm^-1·10^3.

And the Extinction coefficient ([1]; pH 7.1, 405 nm)?
Its Extinction coefficient is 9.7 1·mol^-1·cm^-1·10^3.

And the Extinction coefficient ([1]; pH 10, 405 nm)?
The Extinction coefficient was 18.30 1·mol^-1·cm^-1·10^3.
